Like-named read-outs stand apart in the source and are kept apart here.
Key:
[1] = biological target: T1, GST fusion human ERK2 protein (Homo sapiens, UniProt P28482); assay: ERK2 enzyme assay (2); type: biochemical; conditions: read-out: ERK2 enzyme inhibitory activity (2)
T1 construct: purchased Carna Biosciences, Inc; host or cells: E. coli expression system
Summary of the method: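 IC50 values come from mobility-shift measurement of phosphorylated versus unphosphorylated 5-FAM peptide substrate after EDTA quench. Beforehand, compound and 1.25 nmol/L E. coli-expressed GST–human ERK2 stood 15 min at room temperature (pH 7.5), then 1 mmol/L ATP and 4.25 μmol/L substrate (final) were added for 120 min at 25 °C.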

[2] = biological target: T2, human PI3Kα protein (Homo sapiens, UniProt P42336); assay: PI3Kα enzyme assay (ADP-Glo); type: biochemical; conditions: read-out: PI3Kα enzyme inhibitory activity
T2 construct: purchased Carna Biosciences, Inc; host or cells: baculovirus expression system
Summary of the method: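 Biotinylated human PI3Kα (baculovirus-expressed, 4.5 nmol/L) pre-incubated 15 min with compound in Tris-HCl pH 7.5, MgCl2, BSA; reaction 60 min at 25° C with 50 μmol/L PIP2 and 100 μmol/L ATP final. ADP quantified by ADP-Glo luminescence; IC50 calculated.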

T2 sequence (P42336 whole entry): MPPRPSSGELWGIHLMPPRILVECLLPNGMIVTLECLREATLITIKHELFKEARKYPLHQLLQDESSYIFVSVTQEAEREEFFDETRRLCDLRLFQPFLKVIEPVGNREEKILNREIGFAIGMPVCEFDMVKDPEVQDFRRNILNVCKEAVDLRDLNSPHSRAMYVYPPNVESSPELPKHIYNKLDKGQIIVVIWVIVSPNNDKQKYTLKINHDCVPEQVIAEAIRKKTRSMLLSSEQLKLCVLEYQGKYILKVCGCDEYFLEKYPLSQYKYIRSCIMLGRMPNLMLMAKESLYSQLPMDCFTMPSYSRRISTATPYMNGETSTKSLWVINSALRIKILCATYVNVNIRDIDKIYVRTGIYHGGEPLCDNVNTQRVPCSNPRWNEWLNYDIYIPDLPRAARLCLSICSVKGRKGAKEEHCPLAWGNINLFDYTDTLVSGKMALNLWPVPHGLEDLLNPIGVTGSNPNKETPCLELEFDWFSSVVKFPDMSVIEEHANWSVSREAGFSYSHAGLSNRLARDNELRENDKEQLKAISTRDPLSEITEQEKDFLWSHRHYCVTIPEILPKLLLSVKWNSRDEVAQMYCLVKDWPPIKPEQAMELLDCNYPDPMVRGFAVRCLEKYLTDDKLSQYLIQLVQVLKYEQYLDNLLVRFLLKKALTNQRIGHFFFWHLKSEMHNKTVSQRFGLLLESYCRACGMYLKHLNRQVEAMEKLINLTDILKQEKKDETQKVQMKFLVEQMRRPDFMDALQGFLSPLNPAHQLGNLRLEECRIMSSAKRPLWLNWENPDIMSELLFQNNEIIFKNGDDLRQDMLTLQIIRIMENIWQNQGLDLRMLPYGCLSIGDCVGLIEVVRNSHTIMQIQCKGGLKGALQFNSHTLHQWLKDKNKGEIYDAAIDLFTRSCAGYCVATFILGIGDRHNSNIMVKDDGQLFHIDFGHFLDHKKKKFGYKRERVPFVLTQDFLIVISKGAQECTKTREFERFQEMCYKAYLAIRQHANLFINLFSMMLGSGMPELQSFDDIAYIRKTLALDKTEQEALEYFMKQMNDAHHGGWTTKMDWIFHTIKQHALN
T2 sequence (P27986 whole entry partner): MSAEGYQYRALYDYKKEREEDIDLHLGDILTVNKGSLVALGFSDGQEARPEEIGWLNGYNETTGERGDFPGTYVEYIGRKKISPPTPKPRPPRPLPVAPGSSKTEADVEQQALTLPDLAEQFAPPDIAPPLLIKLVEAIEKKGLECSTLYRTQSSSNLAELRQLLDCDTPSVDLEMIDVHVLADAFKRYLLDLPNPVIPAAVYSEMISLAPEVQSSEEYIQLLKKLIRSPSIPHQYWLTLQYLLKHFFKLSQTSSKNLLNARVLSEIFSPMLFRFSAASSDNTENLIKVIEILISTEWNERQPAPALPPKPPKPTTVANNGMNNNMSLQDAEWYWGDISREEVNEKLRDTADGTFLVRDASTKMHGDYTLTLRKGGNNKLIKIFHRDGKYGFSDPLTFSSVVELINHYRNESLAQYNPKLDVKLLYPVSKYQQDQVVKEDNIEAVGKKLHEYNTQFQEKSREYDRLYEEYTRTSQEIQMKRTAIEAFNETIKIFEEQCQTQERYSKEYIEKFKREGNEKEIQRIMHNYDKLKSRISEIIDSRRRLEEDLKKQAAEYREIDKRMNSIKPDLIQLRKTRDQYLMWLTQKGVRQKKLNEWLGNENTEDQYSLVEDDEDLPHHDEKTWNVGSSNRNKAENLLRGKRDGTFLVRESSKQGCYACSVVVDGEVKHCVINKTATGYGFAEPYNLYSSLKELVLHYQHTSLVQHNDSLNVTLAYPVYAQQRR
T1 sequence (P28482 whole entry, the tested form may be a part): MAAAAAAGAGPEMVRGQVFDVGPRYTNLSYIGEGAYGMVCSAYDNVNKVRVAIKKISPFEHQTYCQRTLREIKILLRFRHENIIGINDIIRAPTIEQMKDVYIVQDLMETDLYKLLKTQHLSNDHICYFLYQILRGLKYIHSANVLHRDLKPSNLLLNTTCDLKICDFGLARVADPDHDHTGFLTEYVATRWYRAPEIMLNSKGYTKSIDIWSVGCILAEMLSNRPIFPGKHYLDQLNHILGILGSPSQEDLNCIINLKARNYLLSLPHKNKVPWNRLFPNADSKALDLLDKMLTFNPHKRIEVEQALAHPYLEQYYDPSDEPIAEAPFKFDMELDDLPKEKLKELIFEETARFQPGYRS

Row | SMILES | IC50 ([1]; ERK2 enzyme assay (2)) | IC50 [2] | IC50 [1]
1 | CC(C)c1cnnc(Nc2ccc3ncc(-c4cnn(CC5CN(C)CCO5)c4)cc3n2)c1 (centres unmarked) [Example 0728, N-(5-isopropylpyridazin-3-yl)-7-(1-((4-methylmorpholin-2-yl)methyl)-1H-pyrazol-4-yl)-1,5-naphthyridine-2-amine] | < 1000 nM | < 1000 nM | 
2 | COC(CN1CC(F)(F)C1)Cn1cc(-c2cnc3ccc(Nc4cc(C(C)C)cnn4)nc3c2)cn1 (centres unmarked) [Example 0814, 7-(1-(3-(3,3-difluoroazetidin-1-yl)-2-methoxypropyl)-1H-pyrazol-4-yl)-N-(5-isopropylpyridazin-3-yl)-1,5-naphthyridine-2-amine] | < 1000 nM | < 1000 nM | 
3 | Cn1cc(-c2cnc3ccc(Nc4cc(C5CCCCC5)cnn4)nc3c2)cn1 [Example 0927, N-(5-cyclohexylpyridazin-3-yl)-7-(1-methyl-1H-pyrazol-4-yl)-1,5-naphthyridine-2-amine] |  | < 1000 nM | < 1000 nM
4 | CC(C)Oc1cnnc(Nc2ccc3ncc(-c4cnn(CCCN5CCOCC5)c4)cc3n2)c1 [Example 0501] | 1000 to 10000 nM | 1000 to 10000 nM | 
5 | CO[C@H]1CC[C@H](Cn2cc(-c3cnc4ccc(Nc5cc(C(C)C)cnn5)nc4c3)cn2)CC1 [Example 0522, N-(5-isopropylpyridazin-3-yl)-7-(1-(((1r,4r)-4-methoxycyclohexyl)methyl)-1H-pyrazol-4-yl)-1,5-naphthyridine-2-amine] | < 1000 nM | < 1000 nM | 
6 | Cc1n[nH]c(C)c1-c1cnc2ccc(Nc3cc(C(C)C)cnn3)nc2c1 [Example 0621] | < 1000 nM | 1000 to 10000 nM | 
7 | CC(=O)NCCc1cn(-c2cnc3ccc(Nc4cc(C(C)C)cnn4)nc3c2)cn1 [Example 0504, N-(2-(1-(6-((5-isopropylpyridazin-3-yl)amino)-1,5-naphthyridin-3-yl)-1H-imidazol-4-yl)ethyl)acetamide] | < 1000 nM | < 1000 nM | 
8 | Cc1nc(C)c(-c2cnc3ccc(Nc4cc(C(C)C)cnn4)nc3c2)s1 [Example 0574, 7-(2,4-dimethylthiazol-5-yl)-N-(5-isopropylpyridazin-3-yl)-1,5-naphthyridine-2-amine] | < 1000 nM | 1000 to 10000 nM | 
9 | CC(C)c1cnnc(Nc2ccc3ncc(-c4cn(C)nc4N(C)C4COC4)cc3n2)c1 [Example 0943] |  | < 1000 nM | < 1000 nM
10 | CC(C)c1cnnc(Nc2ccc3ncc(NC4(C)CCC4)cc3n2)c1 [Example 0888] | 1000 to 10000 nM | 1000 to 10000 nM | 
11 | COCC(=O)N1CCC(Cn2cc(-c3cnc4ccc(Nc5cc(C(C)C)cnn5)nc4c3)cn2)CC1 [Example 0537] | < 1000 nM | < 1000 nM | 
12 | CC(C)NC(=O)N1CCC(Cn2cc(-c3cnc4ccc(Nc5cc(C(C)C)cnn5)nc4c3)cn2)CC1 [Example 0544] | < 1000 nM | < 1000 nM | 
13 | CC(C)c1cnnc(Nc2ccc3ncc(N4CCN(C)CC4)cc3n2)c1 [Example 0842, N-(5-isopropylpyridazin-3-yl)-7-(4-methylpiperazin-1-yl)-1,5-naphthyridine-2-amine] | 1000 to 10000 nM | 1000 to 10000 nM | 
14 | CC(C)c1cnnc(Nc2ccc3ncc(N)cc3n2)c1 [Example 0623, N^2-(5-isopropylpyridazin-3-yl)-1,5-naphthyridine-2,7-diamine] | 1000 to 10000 nM | 1000 to 10000 nM | 
15 | Cc1nn(C)cc1-c1cnc2ccc(Nc3cc(C(C)(C)C)cnn3)nc2c1 [Example 0917] |  | < 1000 nM | < 1000 nM
16 | COC1(C)CN(c2cnc3ccc(Nc4cc(C(C)C)cnn4)nc3c2)C1 [Example 0859] | < 1000 nM | 1000 to 10000 nM | 
17 | CC(C)c1cnnc(Nc2ccc3ncc(-c4cnc(OC5CCN(C)CC5)s4)cc3n2)c1 [Example 0507] | < 1000 nM | < 1000 nM | 
18 | COCCn1cc(-c2nn(C)cc2-c2cnc3ccc(Nc4cc(C(C)C)cnn4)nc3c2)cn1 [Example 0784] | < 1000 nM | < 1000 nM | 
19 | CCC(C)c1cnnc(Nc2ccc3ncc(-c4cnn(C)c4)cc3n2)c1 (centres unmarked) [Example 0569] | < 1000 nM | < 1000 nM | 
20 | CC(C)c1cnnc(Nc2ccc3ncc(N4CC(F)(F)C4)cc3n2)c1 [Example 0854] | < 1000 nM | < 1000 nM | 
21 | Cc1cn(-c2cnc3ccc(Nc4cc(C(C)C)cnn4)nc3c2)c(C)n1 [Example 0698, 7-(2,4-dimethyl-1H-imidazol-1-yl)-N-(5-isopropylpyridazin-3-yl)-1,5-naphthyridine-2-amine] | < 1000 nM | 1000 to 10000 nM | 
22 | CC(C)c1cnnc(Nc2ccc3ncc(/C=C/c4cccnc4)cc3n2)c1 [Example 0648, (E)-N-(5-isopropylpyridazin-3-yl)-7-(2-(pyridin-3-yl)vinyl)-1,5-naphthyridine-2-amine] | < 1000 nM | < 1000 nM | 

Row | SMILES | IC50 ([1]; ERK2 enzyme assay (2)) | IC50 [2] | IC50 [1]
23 | CCN(CC)C(=O)N1CCC(Cn2cc(-c3cnc4ccc(Nc5cc(C(C)C)cnn5)nc4c3)cn2)CC1 [Example 0531] | < 1000 nM | < 1000 nM | 
24 | CC(C)c1cnnc(Nc2ccc3ncc(C4=CCN(C(=O)OC(C)(C)C)C4)cc3n2)c1 [Example 0892, tert-butyl 3-(6-((5-isopropylpyridazin-3-yl)amino)-1,5-naphthyridin-3-yl)-2,5-dihydro-1H-pyrrole-1-carboxylate] | 1000 to 10000 nM | 1000 to 10000 nM | 
25 | CC(C)c1cnnc(Nc2ccc3ncc(-n4cnc5ccccc54)cc3n2)c1 [Example 0512] | < 1000 nM | 1000 to 10000 nM | 
26 | CC(C)c1cnnc(Nc2ccc3ncc(-n4cnc(CCN(C)C)c4)cc3n2)c1 [Example 0503, 7-(4-(2-(Dimethylamino)ethyl)-1H-imidazol-1-yl)-N-(5-isopropylpyridazin-3-yl)-1,5-naphthyridine-2-amine] | < 1000 nM | < 1000 nM | 
27 | CC(C)c1cnnc(Nc2ccc3ncc(-c4ccn(C)c(=O)c4)cc3n2)c1 [Example 0603] | < 1000 nM | < 1000 nM | 
28 | CC(C)c1cnnc(Nc2ccc3ncc(-c4cnn(C[C@H]5CC[C@H](O)CC5)c4)cc3n2)c1 [Example 0521] | < 1000 nM | < 1000 nM | 
29 | CC(C)c1cnnc(Nc2ccc3ncc(-c4cn(C)nc4-c4ccnc(N5CCOCC5)c4)cc3n2)c1 [Example 0749, N-(5-isopropylpyridazin-3-yl)-7-(1-methyl-3-(2-morpholinopyridin-4-yl)-1H-pyrazol-4-yl)-1,5-naphthyridine-2-amine] | < 1000 nM | < 1000 nM | 
30 | CC(C)c1cnnc(Nc2ccc3ncc(-c4cn(C)nc4N(C)C)cc3n2)c1 [Example 0938, 7-(3-(Dimethylamino)-1-methyl-1H-pyrazol-4-yl)-N-(5-isopropylpyridazin-3-yl)-1,5-naphthyridine-2-amine] |  | < 1000 nM | < 1000 nM
31 | Cc1cccc(Cn2cc(-c3cnc4ccc(Nc5cc(C(C)C)cnn5)nc4c3)cn2)n1 [Example 0411, N-(5-isopropylpyridazin-3-yl)-7-(1-((6-methylpyridin-2-yl)methyl)-1H-pyrazol-4-yl)-1,5-naphthyridine-2-amine] | < 1000 nM | < 1000 nM | 
32 | CC(C)c1cnnc(Nc2ccc3ncc(-c4cnn(CCCN5CC(OC(F)F)C5)c4)cc3n2)c1 [Example 0681] | < 1000 nM | < 1000 nM | 
33 | CC(C)c1cnnc(Nc2ccc3ncc(N4CCC(F)(F)CC4)cc3n2)c1 [Example 0858] | < 1000 nM | 1000 to 10000 nM | 
34 | CC(C)c1cnnc(Nc2ccc3ncc(-c4cncn4C)cc3n2)c1 [Example 0509, N-(5-isopropylpyridazin-3-yl)-7-(1-methyl-1H-imidazol-5-yl)-1,5-naphthyridine-2-amine] | < 1000 nM | 1000 to 10000 nM | 
35 | CCn1cc(-c2cnc3ccc(Nc4cc(C(C)C)cnn4)nc3c2)ccc1=O [Example 0596, 1-ethyl-5-(6-((5-isopropylpyridazin-3-yl)amino)-1,5-naphthyridin-3-yl)pyridin-2(1H)-one] | < 1000 nM | < 1000 nM | 
36 | CC(C)c1cnnc(Nc2ccc3ncc(N4CCCN(C)CC4)cc3n2)c1 [Example 0871] | 1000 to 10000 nM | 1000 to 10000 nM | 
37 | CC(C)c1cnnc(Nc2ccc3ncc(-c4cn(C)nc4-c4ccc(OCCN(C)C)cc4)cc3n2)c1 [Example 0774] | < 1000 nM | < 1000 nM | 
38 | CCCOC1CN(CCCn2cc(-c3cnc4ccc(Nc5cc(C(C)C)cnn5)nc4c3)cn2)C1 [Example 0706] | < 1000 nM | < 1000 nM | 
39 | CC(C)c1cnnc(Nc2ccc3ncc(-c4cn(C)nc4N4CCC(=O)N(C)CC4)cc3n2)c1 [Example 0935, 1-(4-(6-((5-isopropylpyridazin-3-yl)amino)-1,5-naphthyridin-3-yl)-1-methyl-1H-pyrazol-3-yl)-4-methyl-1,4-diazepan-5-one] |  | < 1000 nM | 1000 to 10000 nM
40 | CC(C)c1cnnc(Nc2ccc3ncc(-c4cn(C)nc4-c4ccccn4)cc3n2)c1 [Example 0838, N-(5-isopropylpyridazin-3-yl)-7-(1-methyl-3-(pyridin-2-yl)-1H-pyrazol-4-yl)-1,5-naphthyridine-2-amine] | < 1000 nM | < 1000 nM | 
41 | CC(C)c1cnnc(Nc2ccc3ncc(-c4cn(C)nc4COc4cccc(OCCN(C)C)c4)cc3n2)c1 [Example 0809, 7-(3-((3-(2-(dimethylamino)ethoxy)phenoxy)methyl)-1-methyl-1H-pyrazol-4-yl)-N-(5-isopropylpyridazin-3-yl)-1,5-naphthyridine-2-amine] | < 1000 nM | < 1000 nM | 
42 | COc1cncc(-c2nn(C)cc2-c2cnc3ccc(Nc4cc(C(C)C)cnn4)nc3c2)c1 [Example 0451] | < 1000 nM | < 1000 nM | 
43 | CC(C)c1cnnc(Nc2ccc3ncc(-c4cn(C)nc4-c4ccnc(OCCN(C)C)c4)cc3n2)c1 [Example 0751] | < 1000 nM | < 1000 nM | 
